Consider 31 compounds from patent US11174253B2, “Compound and pharmaceutical composition containing the same” (ALPHALA CO., LTD., priority 2017, dated 2021).

What is called viability is the share of living cells, or the viability signal relative to a control.

The experiment concerns hepatocellular carcinoma cell line Hep3B. In words: Growth inhibition of Hep3B cells, 48 hr treatment, Hoechst 33342 nucleus count (GE InCell 2200). It is filed as cell-based. The conditions noted are these: Homo sapiens, Table 5, ratio of number of tumor cells treated with 10 μM compound to non-treated cells. The method, then:
The potency of selected compounds was defined by the growth inhibition ability to the hepatocellular carcinoma cell line Hep3B. The Hep3B cells were treated with selected compounds for 48 hr under 37° C., 5% CO2, and 95% relative humidity.
The number of treated cells was determined by GE InCell 2200 system, and treated cells were stained with Hoechst 33342 which can reveal the remained nucleus in culture plate. The proportion of survival cells then were calculated with the ratio of treated/non-treated cells. The growth inhibition/cytotoxic effect of selected compounds were evaluated by the following protocol of NCI-60 screening platform. The human tumor cell lines are plating on a 96 well plate in a fixed density 24 hr prior compound treatment. Compounds with multiple concentrations are then added into each well for further 48 hr incubation. Cell viability is assessed by MTS method and the potency of compound is represented by GI50 and LC50 calculated by MTS result.
Herein, the “Ratio in 10 μM (%)” in the following Tables 1-6 refers to the ratio of the number of tumor cells treated with 10 μM of selected compounds to the number of non-treated tumer cells.
In the case of `CCCOc1ccc(-c2nc(NC(=O)c3ccc([N+](=O)[O-])s3)sc2Oc2ccccc2OCC)cc1` [Compound 5-21, N-(5-(2-ethoxyphenoxy)-4-(4-propoxyphenyl)thiazol-2-yl)-5-nitrothiophene-2-carboxamide], the viability at 10 µM came to 28%.
Consider `CCOc1ccc(-c2nc(NC(=O)c3ccc([N+](=O)[O-])s3)sc2Oc2ccc(C(F)(F)F)cc2)cc1` [Compound 5-25, N-(4-(4-ethoxyphenyl)-5-(4-(trifluoromethyl)phenoxy)thiazol-2-yl)-5-nitrothiophene-2-carboxamide], for which the viability at 10 µM is 32%.
In the case of `CCCOc1ccc(-c2nc(NC(=O)c3ccc([N+](=O)[O-])s3)sc2Oc2cc(C)c(Br)c(C)c2)cc1` [Compound 5-28, N-(5-(4-bromo-3,5-dimethylphenoxy)-4-(4-propoxyphenyl)thiazol-2-yl)-5-nitrothiophene-2-carboxamide] it was 32%; in that of `O=C(Nc1nc(-c2ccc(F)cc2)c(Oc2ccccc2C(F)(F)F)s1)c1ccc([N+](=O)[O-])s1` [Compound 5-31, N-(4-(4-fluorophenyl)-5-(2-(trifluoromethyl)phenoxy)thiazol-2-yl)-5-nitrothiophene-2-carboxamide], 48%; in that of `O=C(Nc1nc(-c2ccc(F)cc2)c(Oc2ccc(OC(F)(F)F)cc2)s1)c1ccc([N+](=O)[O-])s1` [Compound 5-33, N-(4-(4-fluorophenyl)-5-(4-(trifluoromethoxy)phenoxy)thiazol-2-yl)-5-nitrothiophene-2-carboxamide], 40%.
With `COc1ccc(-c2nc(NC(=O)c3ccc([N+](=O)[O-])s3)sc2Oc2ccccc2)cc1` [Compound 5-34, N-(4-(4-methoxyphenyl)-5-phenoxythiazol-2-yl)-5-nitrothiophene-2-carboxamide], the viability at 10 µM was 54%.
In the case of `CNC(=O)c1ccc(-c2nc(NC(=O)c3ccc([N+](=O)[O-])s3)sc2Oc2ccc(F)cc2)cc1` [Compound 5-35, N-(5-(4-fluorophenoxy)-4-(4-(methylcarbamoyl)phenyl)thiazol-2-yl)-5-nitrothiophene-2-carboxamide] it was 68%; in that of `CCOc1cc(OCC)cc(-c2nc(NC(=O)c3ccc([N+](=O)[O-])s3)sc2Oc2ccccc2)c1` [Compound 5-36, N-(4-(3,5-diethoxyphenyl)-5-phenoxythiazol-2-yl)-5-nitrothiophene-2-carboxamide], 39%; in that of `CCCOc1ccc(-c2nc(NC(=O)c3ccc([N+](=O)[O-])s3)sc2Oc2ccc(F)cc2F)cc1` [Compound 5-37, N-(5-(2,4-difluorophenoxy)-4-(4-propoxyphenyl)thiazol-2-yl)-5-nitrothiophene-2-carboxamide], 38%.
In the case of `CCCOc1ccc(-c2nc(NC(=O)c3ccc([N+](=O)[O-])s3)sc2Oc2ccc(C#N)cc2OC)cc1` [Compound 5-40, N-(5-(4-cyano-2-methoxyphenoxy)-4-(4-propoxyphenyl)thiazol-2-yl)-5-nitrothiophene-2-carboxamide] it was 46%; in that of `CC(C)(C)C#Cc1ccc(-c2nc(NC(=O)c3ccc([N+](=O)[O-])s3)sc2Oc2ccccc2)s1` [Compound 5-41, N-(4-(5-(3,3-dimethylbut-1-yn-1-yl)thiophen-2-yl)-5-phenoxythiazol-2-yl)-5-nitrothiophene-2-carboxamide], 41%; in that of `O=C(Nc1nc(-c2ccc(Br)s2)c(Oc2ccccc2)s1)c1ccc([N+](=O)[O-])s1` [Compound 5-42, N-(4-(5-bromothiophen-2-yl)-5-phenoxythiazol-2-yl)-5-nitrothiophene-2-carboxamide], 55%.
The figure for `CCCOc1ccc(-c2nc(NC(=O)c3ccc([N+](=O)[O-])s3)sc2Oc2ccc(Cl)c(Cl)c2)cc1` [Compound 5-44, N-(5-(3,4-dichlorophenoxy)-4-(4-propoxyphenyl)thiazol-2-yl)-5-nitrothiophene-2-carboxamide] is 41%; for `CCCOc1ccc(-c2nc(NC(=O)c3ccc([N+](=O)[O-])s3)sc2Oc2ccc(F)cc2Cl)cc1` [Compound 5-45, N-(5-(2-chloro-4-fluorophenoxy)-4-(4-propoxyphenyl)thiazol-2-yl)-5-nitrothiophene-2-carboxamide] it is 28%; for `CN(C)CC#Cc1ccc(-c2nc(NC(=O)c3ccc([N+](=O)[O-])s3)sc2Oc2ccccc2)s1` [Compound 5-46, N-(4-(5-(3-(dimethylamino)prop-1-yn-1-yl)thiophen-2-yl)-5-phenoxythiazol-2-yl)-5-nitrothiophene-2-carboxamide] it is 53%.
Consider `CCCOc1ccc(-c2nc(NC(=O)c3ccc([N+](=O)[O-])o3)sc2Oc2ccc(F)cc2)cc1` [Compound 5-49, N-(5-(4-fluorophenoxy)-4-(4-propoxyphenyl)thiazol-2-yl)-5-nitrofuran-2-carboxamide], for which the viability at 10 µM worked out at 41%.
In the case of `CCCOc1ccc(-c2nc(NC(=O)c3ccc([N+](=O)[O-])s3)sc2Oc2cc(F)cc(F)c2)cc1` [Compound 5-50, N-(5-(3,5-difluorophenoxy)-4-(4-propoxyphenyl)thiazol-2-yl)-5-nitrothiophene-2-carboxamide] it was 42%; in that of `CCOc1ccc(-c2nc(NC(=O)c3ccc([N+](=O)[O-])s3)sc2Oc2ccccc2)cn1` [Compound 5-51, N-(4-(6-ethoxypyridin-3-yl)-5-phenoxythiazol-2-yl)-5-nitrothiophene-2-carboxamide], 43%; in that of `CCCOc1ccc(-c2nc(NC(=O)c3ccc([N+](=O)[O-])s3)sc2Oc2cccc3cccnc23)cc1` [Compound 5-52, 5-nitro-N-(4-(4-propoxyphenyl)-5-(quinolin-8-yloxy)thiazol-2-yl)thiophene-2-carboxamide], 41%.
In the case of `CCOc1ccc(-c2nc(NC(=O)c3ccc([N+](=O)[O-])s3)sc2Oc2ccccc2)c(F)c1` [Compound 5-53, N-(4-(4-ethoxy-2-fluorophenyl)-5-phenoxythiazol-2-yl)-5-nitrothiophene-2-carboxamide] it was 41%.
The figure for `CCOc1ccc(-c2nc(NC(=O)c3ccc([N+](=O)[O-])s3)sc2Oc2cccc(F)c2)cc1` [Compound 5-54, N-(4-(4-ethoxyphenyl)-5-(3-fluorophenoxy)thiazol-2-yl)-5-nitrothiophene-2-carboxamide] is 35%.
Regarding `CCOc1ccc(-c2nc(NC(=O)c3ccc([N+](=O)[O-])s3)sc2Oc2ccc(F)cc2)cc1` [Compound 5-55, N-(4-(4-ethoxyphenyl)-5-(4-fluorophenoxy)thiazol-2-yl)-5-nitrothiophene-2-carboxamide], the viability at 10 µM turned out to be 47%.
In the case of `CCOc1ccc(-c2nc(NC(=O)c3ccc([N+](=O)[O-])s3)sc2Oc2ccccc2F)cc1` [Compound 5-57, N-(4-(4-ethoxyphenyl)-5-(2-fluorophenoxy)thiazol-2-yl)-5-nitrothiophene-2-carboxamide] it was 43%; in that of `CCCOc1ccc(-c2nc(NC(=O)c3ccc([N+](=O)[O-])s3)sc2Oc2ccccc2F)cc1` [Compound 5-58, N-(5-(2-fluorophenoxy)-4-(4-propoxyphenyl)thiazol-2-yl)-5-nitrothiophene-2-carboxamide], 43%; in that of `CCC(C)(C)c1ccc(-c2nc(NC(=O)c3ccc([N+](=O)[O-])s3)sc2Oc2ccccc2)cc1` [Compound 5-59, 5-nitro-N-(4-(4-(tert-pentyl)phenyl)-5-phenoxythiazol-2-yl)thiophene-2-carboxamide], 38%.
In the case of `O=C(Nc1nc(-c2ccc([N+](=O)[O-])cc2)c(Oc2ccccc2)s1)c1ccc([N+](=O)[O-])s1` [Compound 5-60, 5-nitro-N-(4-(4-nitrophenyl)-5-phenoxythiazol-2-yl)thiophene-2-carboxamide] it was 38%; in that of `COc1cc(-c2nc(NC(=O)c3ccc([N+](=O)[O-])s3)sc2Oc2ccccc2)cc(OC)c1OC` [Compound 5-61, 5-nitro-N-(5-phenoxy-4-(3,4,5-trimethoxyphenyl)thiazol-2-yl)thiophene-2-carboxamide], 59%; in that of `CC(C)(C)c1ccc(Oc2sc(NC(=O)c3ccc([N+](=O)[O-])s3)nc2-c2ccc(F)cc2)cc1` [Compound 5-64, N-(5-(4-(tert-butyl)phenoxy)-4-(4-fluorophenyl)thiazol-2-yl)-5-nitrothiophene-2-carboxamide], 54%.
Consider `CCCCc1ccc(Oc2sc(NC(=O)c3ccc([N+](=O)[O-])s3)nc2-c2ccc(F)cc2)cc1` [Compound 5-65, N-(5-(4-butylphenoxy)-4-(4-fluorophenyl)thiazol-2-yl)-5-nitrothiophene-2-carboxamide], for which the viability at 10 µM is 43%.
The figure for `CCCCOc1ccc(-c2nc(NC(=O)c3ccc([N+](=O)[O-])s3)sc2Oc2ccccc2F)cc1` [Compound 5-72, N-(4-(4-butoxyphenyl)-5-(2-fluorophenoxy)thiazol-2-yl)-5-nitrothiophene-2-carboxamide] is 43%; for `CCCCOc1ccc(-c2nc(NC(=O)c3ccc([N+](=O)[O-])s3)sc2Oc2ccc(F)cc2)cc1` [Compound 5-73, N-(4-(4-butoxyphenyl)-5-(4-fluorophenoxy)thiazol-2-yl)-5-nitrothiophene-2-carboxamide] it is 49%.
